The target in the experiment is T1, Drosophila melanogaster dopamine transporter (dDAT) (Drosophila melanogaster, UniProt Q7K4Y6).
T1 construct: gene DAT; Full-length wild-type dDAT with a C-terminal thrombin site and 8 histidine-tag
Nature of the experiment: [3H]nisoxetine saturation binding, scintillation proximity assay on purified dDAT.

In publication PMC6586795 (Nature Communications, 2019) one finds Kd data, which are given here for one molecule.

T1 sequence (Q7K4Y6 whole entry): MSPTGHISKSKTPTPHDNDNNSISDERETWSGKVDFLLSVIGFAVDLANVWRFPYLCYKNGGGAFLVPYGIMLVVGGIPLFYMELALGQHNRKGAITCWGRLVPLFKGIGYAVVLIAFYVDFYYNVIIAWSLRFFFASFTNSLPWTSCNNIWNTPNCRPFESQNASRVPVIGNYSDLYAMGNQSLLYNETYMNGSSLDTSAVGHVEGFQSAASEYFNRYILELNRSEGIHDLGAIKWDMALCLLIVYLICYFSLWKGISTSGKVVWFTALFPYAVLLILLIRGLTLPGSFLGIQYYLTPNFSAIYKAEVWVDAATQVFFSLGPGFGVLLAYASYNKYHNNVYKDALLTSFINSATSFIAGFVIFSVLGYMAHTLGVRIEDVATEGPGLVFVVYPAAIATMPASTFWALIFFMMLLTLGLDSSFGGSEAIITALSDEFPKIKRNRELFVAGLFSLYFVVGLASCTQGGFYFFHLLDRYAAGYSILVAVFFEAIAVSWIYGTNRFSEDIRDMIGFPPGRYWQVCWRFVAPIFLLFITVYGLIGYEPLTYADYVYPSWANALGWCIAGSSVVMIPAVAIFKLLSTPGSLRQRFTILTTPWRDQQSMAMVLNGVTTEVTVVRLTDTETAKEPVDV

`CNCCC(Oc1ccccc1OC)c1ccccc1` (stereo not shown) [nisoxetine] returned a dissociation constant Kd of 80 ± 6 nM.
